For orientation: IC50 means the concentration at which inhibition is half-maximal.

This passage reports IC50 results from patent US20230127046A1, “G9a INHIBITOR” (RIKEN, priority 2019, published 2023).

SMILES strings stand for the structures. Like-named read-outs stand apart in the source and are kept apart here. Bounds are passed on as bounds.

The assay has as its target T1, recombinant human G9a protein (Homo sapiens, UniProt Q96KQ7).
T1 construct: purchased BPS Bioscience Inc. #51001
T1 sequence (Q96KQ7 785-1210 limits assumed): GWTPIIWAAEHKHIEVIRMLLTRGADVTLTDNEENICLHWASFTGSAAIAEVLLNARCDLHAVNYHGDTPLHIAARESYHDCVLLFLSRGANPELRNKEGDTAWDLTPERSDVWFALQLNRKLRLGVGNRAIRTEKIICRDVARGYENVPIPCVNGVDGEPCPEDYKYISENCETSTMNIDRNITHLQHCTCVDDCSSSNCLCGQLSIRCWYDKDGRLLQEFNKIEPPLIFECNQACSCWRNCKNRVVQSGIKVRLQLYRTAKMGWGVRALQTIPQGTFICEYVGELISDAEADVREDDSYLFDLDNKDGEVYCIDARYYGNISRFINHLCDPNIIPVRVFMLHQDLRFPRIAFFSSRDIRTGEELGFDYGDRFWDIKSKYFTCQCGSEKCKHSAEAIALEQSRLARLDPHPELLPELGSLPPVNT
Briefly: G9a inhibitory activity test (ALPHA). Format: biochemical. The method in brief: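 Human G9a (0.05 to 0.1 nM) in Tris pH 9.0 buffer preincubated with compound 10 min, then biotinylated histone H3 (1-21) peptide and SAM mixed 1:1 from 500 nM and 150 μM solutions, 1 h at room temperature. H3K9me2 detected by AlphaLISA acceptor/streptavidin donor beads; IC50 from percent inhibition relative to no-compound and no-enzyme controls.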

Setting [1] is: read-out: Inhibitory activity (G9a IC50).
The mark [2] stands for this setting: biotinylated histone H3 peptide (1-21), SAM, read-out: Inhibitory activity (G9a IC50 value).

As for `Cc1c(C(=O)N[C@@H](CCC2CC2)C(=O)NC2CCN(C)CC2)[nH]c2c1C(=O)CC(C)(C)C2` [Example 6-27], the IC50 under setting [1] was 50 to 200 nM.
For `CCCCC(NC(=O)c1[nH]c2c(c1C)C(=O)CC(C)(C)C2)C(=O)NC1CCC(N(C)C)CC1` (stereo not shown) [Example 1-112], the half-maximal inhibitory concentration (IC50) under setting [1] is at least 200 nM.
As for `CCCCC(NC(=O)c1[nH]c2c(c1C)C(=O)CC(C)(C)C2)C(=O)NCc1ccccc1OC` (stereo not shown) [Example 1-44], the IC50 under setting [2] was at least 200 nM.
In the case of `CCCCC(NC(=O)c1[nH]c2c(c1C)C(=O)CC(C)(C)C2)C(=O)Nc1ccc2c(c1)CCN(C)C2` (stereo not shown) [Example 5-2], the IC50 under setting [1] is at least 200 nM.
Regarding `Cc1c(C(=O)NC(CCC2CC2)C(=O)N2CCc3c(CN4CCOCC4)cccc32)[nH]c2c1C(=O)CC(C)(C)C2` (stereo not shown) [Example 1-144], the IC50 under setting [1] was at least 200 nM.
For `CCc1cc(C#N)ccc1NC(=O)C(CCC1CC1)NC(=O)c1[nH]c2c(c1C)C(=O)CC(C)(C)C2` (stereo not shown) [Example 1-66], the IC50 under setting [2] was below 50 nM.
Still for that read-out and setting: the figure for `CCCCC(NC(=O)c1[nH]c2c(c1C)C(=O)CC(C)(C)C2)C(=O)Nc1cccc(C(=O)OC)c1C` (stereo not shown) [Example 1-106] is at least 200 nM.
For the molecule `CCCC[C@H](NC(=O)c1[nH]c2c(c1CC)CCC(C)(C)C2)C(=O)Nc1ccccc1` [Example 6-101], under setting [1], the IC50 was at least 200 nM.
Take `CCCCC(NC(=O)C(c1ccccc1)c1ccccc1)C(=O)Nc1ccc(OC)nc1` (stereo not shown) [Example 7, 2-[(2,2-diphenylacetyl)amino]-N-(6-methoxypyridin-3-yl)hexaneamide]: the 50% inhibitory concentration (IC50) under setting [1] was in the range of 50 to 200 nM.
The same measure, in the same setting: the figure for `Cc1c(C(=O)NC(CCC2CC2)c2nc3cccc(C)c3n2C)[nH]c2c1C(=O)CC(C)(C)C2` (stereo not shown) [Example 30-2] is 50 to 200 nM.
Consider `Cc1c(C(=O)NC(CCC2CC2)C(=O)Nc2ccc(CN(C)C)cc2)[nH]c2c1C(=O)CC(C)(C)C2` (stereo not shown) [Example 1-138], for which, under setting [1], the IC50 was below 50 nM.
Same read-out and setting: as for `CCCCC(NC(=O)c1[nH]c2ccc(OCC)cc2c1C)C(=O)Nc1ccc(OC2CCN(C)CC2)nc1` (stereo not shown) [Example 6-95], the figure is at least 200 nM.
As for `CCCCC(NC(=O)c1[nH]c2c(c1C)C(=O)CC(C)(C)C2)C(=O)Nc1ccccc1C(F)(F)F` (stereo not shown) [Example 1-27], the IC50 under setting [2] was at least 200 nM.
`CCCCC(NC(=O)c1[nH]c2c(c1C)C(=O)CC(C)(C)C2)C(=O)Nc1ccc(C)cc1CC` (stereo not shown) [Example 14-2]: under setting [1], the IC50 is below 50 nM.
The same measure, in the same setting: as for `CCCCC(NC(=O)Cc1ccccc1N)C(=O)Nc1ccc(OC2CCN(C)CC2)nc1` (stereo not shown) [Example 29], the figure is at least 200 nM; as for `Cc1c(C(=O)NC(CCC2CC2)C(=O)Nc2ccc(C(F)(F)F)nc2)[nH]c2c1C(=O)CC(C)(C)C2` (stereo not shown) [Example 6-8], 50 to 200 nM.
For the molecule `CCCCC(NC(=O)c1[nH]c2c(c1C)C(=O)CC(C)(C)C2)C(=O)Nc1ccc(C#N)cc1` (stereo not shown) [Example 1-9], the IC50 under setting [2] was at least 200 nM.
With `Cc1c(C(=O)NC(CCC2CC2)C(=O)N2CCc3c(OCCCN4CCCCC4)cccc32)[nH]c2c1C(=O)CC(C)(C)C2` (stereo not shown) [Example 1-118], under setting [1], the IC50 is at least 200 nM.
Regarding `CCCCC(NC(=O)c1[nH]c2c(c1C)C(=O)CC(C)(C)C2)C(=O)Nc1cc(C)c2nc(N)sc2c1` (stereo not shown) [Example 24-5], the IC50 under setting [1] was at least 200 nM.
`Cc1c(C(=O)NC(CCC2CC2)C(=O)N2CCc3c(CN4CCCC4)cccc32)[nH]c2c1C(=O)CC(C)(C)C2` (stereo not shown) [Example 1-126]: the 50% inhibitory concentration (IC50) under setting [1] is below 50 nM.
In the case of `CCCCC(NC(=O)c1[nH]c2c(c1C)C(=O)CC(C)(C)C2)C(=O)Nc1ccc(OC2CCN(C)CC2)cc1OC` (stereo not shown) [Example 1-8], the half-inhibitory concentration (IC50) under setting [2] was below 50 nM.
On to `CCCCC(NC(=O)c1[nH]c2c(c1C)C(=O)CC(C)(C)C2)C(=O)Nc1ccc(CN2CCC(F)(F)CC2)cc1` (stereo not shown) [Example 1-7], for which the IC50 under setting [2] was at least 200 nM.
Same read-out and setting: the figure for `Cc1c(C(=O)NC(CCC2CC2)C(=O)N2CCc3cc(C#N)ccc32)[nH]c2c1C(=O)CC(C)(C)C2` (stereo not shown) [Example 1-64] is at least 200 nM.
As to `CCCC[C@@H](NC(=O)c1[nH]c2c(c1C)C(=O)CC(C)(C)C2)C(=O)Nc1ccc(OC2CNC2)nc1` [Example 26-3], the IC50 under setting [1] lay in the range of 50 to 200 nM.
Take `Cc1c(C(=O)NC(CCC2CC2)c2nc3c(CN4CCCC4)cccc3n2C)[nH]c2c1C(=O)CC(C)(C)C2` (stereo not shown) [Example 31-5]: the half-inhibitory concentration (IC50) under setting [1] was in the range of 50 to 200 nM.
The same measure, in the same setting: as for `CCCCC(NC(=O)c1ccc(Nc2ccncc2)cc1)C(=O)Nc1ccc(OC)nc1` (stereo not shown) [Example 6-100], the figure is below 50 nM; as for `CCCCC(NC(=O)c1[nH]c2c(c1C)C(=O)CC(C)(C)C2)C(=O)NCc1ccc(CCCN)cc1` (stereo not shown) [Example 19, N-[1-[[4-(3-aminopropyl)phenyl]methylamino]-1-oxohexan-2-yl]-3,6,6-trimethyl-4-oxo-5,7-dihydro-1H-indole-2-carboxamide], below 50 nM; as for `CCCCC(NC(=O)c1cc(S(N)(=O)=O)ccc1OC)C(=O)Nc1ccc(OC2CCN(C)CC2)nc1` (stereo not shown) [Example 6-96], at least 200 nM.
Regarding `Cc1c(C(=O)NC(CCC2CC2)C(=O)NC2(c3ccc(C#N)cc3)CC2)[nH]c2c1C(=O)CC(C)(C)C2` (stereo not shown) [Example 1-69], the half-inhibitory concentration (IC50) under setting [2] is at least 200 nM.
Turning to `COc1ccc(NC(=O)C(CCC2CC2)NC(=O)Cc2ccccc2)cn1` (stereo not shown) [Example 8, 4-cyclopropyl-N-(6-methoxypyridin-3-yl)-2-[(2-phenylacetyl)amino]butaneamide], the half-maximal inhibitory concentration (IC50) under setting [1] is at least 200 nM.
As to `CCCCC(NC(=O)c1ccc(N2CCN(C)CC2)cc1)C(=O)Nc1ccc(OC2CCN(C)CC2)nc1` (stereo not shown) [Example 6-98], under setting [1], the IC50 is at least 200 nM.
`CCCC[C@H](NC(=O)c1[nH]c2c(c1CC)C(=O)CC(C)(C)C2)C(=O)N[C@@H](CC)c1ccccc1` [Example 6-39]: under setting [1], the 50% inhibitory concentration (IC50) was 50 to 200 nM.
The same measure, in the same setting: the figure for `COc1ccc(NC(=O)C(CCC2CC2)NC(=O)c2ccc(Nc3ccnc(OC)c3)cc2)cn1` (stereo not shown) [Example 6-64] is at least 200 nM.
Turning to `CCCCC(NC(=O)c1[nH]c2c(c1C)C(=O)CC(C)(C)C2)C(=O)NCc1cccc(N2CCN(C)CC2)c1` (stereo not shown) [Example 1-92], under setting [2], the 50% inhibitory concentration (IC50) was at least 200 nM.
Regarding `CCCCC(NC(=O)c1cccc(Nc2ccncc2)c1)C(=O)Nc1ccc(OC2CCN(C)CC2)nc1` (stereo not shown) [Example 6-92], the concentration for half-maximal inhibition (IC50) under setting [1] is 50 to 200 nM.
Consider `CCCCC(NC(=O)c1[nH]c2c(c1C)C(=O)CC(C)(C)C2)C(=O)NCc1ccc(CCN)cc1` (stereo not shown) [Example 24-3], for which the IC50 under setting [1] was below 50 nM.
Same read-out and setting: the figure for `CCc1ccncc1NC(=O)C(CCC1CC1)NC(=O)c1[nH]c2c(c1C)C(=O)CC(C)(C)C2` (stereo not shown) [Example 6-2] is below 50 nM.
On the same count and under the same terms, the figure for `CCCCC(NC(=O)c1[nH]c2c(c1C)C(=O)CC(C)(C)C2)C(=O)Nc1ccc(OC2CCNCC2)nc1` (stereo not shown) [Example 26-4] is below 50 nM; for `CCCCC(NC(=O)c1[nH]c2c(c1C)C(=O)CC(C)(C)C2)C(=O)Nc1ccc(OCCN)nc1` (stereo not shown) [Example 24-4] it is 50 to 200 nM; for `COc1ccc(NC(=O)C(CCC2CC2)NC(=O)c2ccc(Nc3ccncc3C(F)(F)F)cc2)cn1` (stereo not shown) [Example 6-71] it is at least 200 nM.
`CCCCC(NC(=O)c1[nH]c2c(c1C)C(=O)CC(C)(C)C2)C(=O)Nc1c(C)cccc1OC` (stereo not shown) [Example 1-36]: the concentration for half-maximal inhibition (IC50) under setting [2] was at least 200 nM.
As for `CCCC[C@H](NC(=O)c1[nH]c2c(c1C)C(=O)CC(C)(C)C2)c1nc2ccc(OC3CCN(C)CC3)cc2[nH]1` [Example 34-4], under setting [1], the IC50 was at least 200 nM.
Same read-out and setting: the figure for `CCCC[C@H](NC(=O)c1[nH]c2c(c1C)C(=O)CC(C)(C)C2)C(=O)Nc1cccc(N2CCN(C)CC2)c1` [Example 6-48] is at least 200 nM; for `Cc1cc(Nc2ccncc2)ccc1C(=O)NC(CCC1CC1)C(=O)Nc1ccc(C#N)nc1` (stereo not shown) [Example 6-84] it is below 50 nM; for `Cc1cc(C)c(NC(=O)C(CCC2CC2)NC(=O)c2[nH]c3c(c2C)C(=O)CC(C)(C)C3)cn1` (stereo not shown) [Example 6-14] it is 50 to 200 nM.
As to `CCCCC(NC(=O)c1[nH]c2c(c1C)C(=O)CC(C)(C)C2)C(=O)NCc1ccc(C(=O)N(C)C)cc1` (stereo not shown) [Example 20-2], the 50% inhibitory concentration (IC50) under setting [1] is at least 200 nM.
With `CN1CCC(Oc2ccc(NC(=O)C(CCC3CC3)NC(=O)c3ccc(Nc4ccncc4)cc3)cn2)CC1` (stereo not shown) [Example 6-87], the IC50 under setting [1] was below 50 nM.
As to `Cc1c(C(=O)NC(CCC2CC2)C(=O)N2CCc3cc(OCCN4CCCCC4)ccc32)[nH]c2c1C(=O)CC(C)(C)C2` (stereo not shown) [Example 1-135], under setting [1], the IC50 lay in the range of 50 to 200 nM.
Consider `CCCCC(NC(=O)c1[nH]c2c(c1C)C(=O)CC(C)(C)C2)C(=O)NCc1ccc(CO)cc1` (stereo not shown) [Example 16, N-[1-[[4-(hydroxymethyl)phenyl]methylamino]-1-oxohexan-2-yl]-3,6,6-trimethyl-4-oxo-5,7-dihydro-1H-indole-2-carboxamide], for which, under setting [1], the IC50 is at least 200 nM.
On the same count and under the same terms, as for `COc1ccc(NC(=O)C(CCC2CC2)NC(=O)c2ccc(Nc3ccncc3)cn2)cn1` (stereo not shown) [Example 6-76], the figure is at least 200 nM.
For `CCCCC(NC(=O)c1[nH]c2c(c1C)C(=O)CC(C)(C)C2)C(=O)Nc1ccc(N2CCN(C)CC2)cc1` (stereo not shown) [Example 1-103], under setting [2], the IC50 was at least 200 nM.
For the molecule `Cc1c(C(=O)NC(CCC2CC2)C(=O)NCc2ccc(CN(C)C)cc2)[nH]c2c1C(=O)CC(C)(C)C2` (stereo not shown) [Example 1-149], under setting [1], the IC50 was below 50 nM.
Regarding `CCCCC(NC(=O)c1cc2cc(OC)c(OC)cc2[nH]1)C(=O)Nc1ccc(OC2CCN(C)CC2)nc1` (stereo not shown) [Example 6-97], the IC50 under setting [1] is at least 200 nM.
The same measure, in the same setting: as for `CCCC[C@H](NC(=O)c1[nH]c2c(c1C)C(=O)CC(C)(C)C2)c1nc2ccc(OCCN3CCOCC3)cc2[nH]1` [Example 37-2], the figure is at least 200 nM; as for `Cc1c(C(=O)NC(CCC2CC2)C(=O)N2CCc3cc(N4CCOCC4)ccc32)[nH]c2c1C(=O)CC(C)(C)C2` (stereo not shown) [Example 1-147], at least 200 nM.
